The source of these data is patent publication US20210238192A1, “VASCULAR ADHESION PROTEIN-1 (VAP-1) MODULATORS AND THERAPEUTIC USES THEREOF” (Blade Therapeutics, Inc., priority 2018, published 2021).

Counter-ions that a name gives are not always drawn.

One test has as its target T1, Human VAP-1 (Homo sapiens, UniProt Q16853).
T1 sequence (Q16853 1-763): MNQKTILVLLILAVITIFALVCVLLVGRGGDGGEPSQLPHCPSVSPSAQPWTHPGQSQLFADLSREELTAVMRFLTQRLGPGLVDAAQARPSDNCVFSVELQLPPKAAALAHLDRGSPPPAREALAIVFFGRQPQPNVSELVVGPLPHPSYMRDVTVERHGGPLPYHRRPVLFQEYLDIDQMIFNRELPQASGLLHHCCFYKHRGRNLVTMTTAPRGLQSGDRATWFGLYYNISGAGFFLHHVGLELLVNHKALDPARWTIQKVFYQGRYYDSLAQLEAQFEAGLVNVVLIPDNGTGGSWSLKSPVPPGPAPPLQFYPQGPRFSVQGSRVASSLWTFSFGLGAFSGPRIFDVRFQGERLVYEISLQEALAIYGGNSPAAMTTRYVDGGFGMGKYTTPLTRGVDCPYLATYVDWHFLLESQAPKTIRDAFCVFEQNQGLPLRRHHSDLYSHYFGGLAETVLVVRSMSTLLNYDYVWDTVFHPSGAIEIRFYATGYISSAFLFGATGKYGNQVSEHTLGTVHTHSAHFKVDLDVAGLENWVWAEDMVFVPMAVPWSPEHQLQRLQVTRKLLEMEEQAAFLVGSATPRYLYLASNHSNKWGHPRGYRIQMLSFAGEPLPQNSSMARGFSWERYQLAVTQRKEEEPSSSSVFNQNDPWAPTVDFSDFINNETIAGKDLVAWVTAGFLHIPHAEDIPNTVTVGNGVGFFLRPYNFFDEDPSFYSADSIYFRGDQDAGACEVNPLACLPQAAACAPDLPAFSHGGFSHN
In words: VAP-1 inhibition assay (Amplex Red continuous fluorescence assay). The test is classed as biochemical. The following applies: 30 min pre-incubation at 37° C.; substrate benzylamine; read-out: Human VAP-1 IC50. As to the method:
(§1) VAP-1, DAO, MAO-A, MAO-B, and HRP activity and inhibition thereof was assessed by means of a continuous fluorescence assay. The Amplex Red Hydrogen Peroxide/Peroxidase Assay (ThermoFisher) was optimized for detecting amine oxidase (AO) activity. In an enzyme-coupled reaction, the H2O2 generated by AO reacts 1:1 with Amplex Red reagent to produce fluorescent product resorufin.
(§2) Assays were typically setup in black 384-well plates using automated liquid handling as follows. VAP-1/MAO assay buffer contains […] sodium phosphate, pH 7.4; DAO assay buffer contains 50 mM HEPES, pH 7.5; HRP assay buffer contains 100 mM CHES, 1 mM MgCl2, 50 mM NaCl, 0.05% BSA, pH 9.0. Inhibitors were serially diluted in DMSO and used to setup 2× mixtures with AO in the aforementioned buffer. After 30 min pre-incubation at 37° C. (VAP-1, HRP) or room temp (DAO, MAO), the reaction was initiated by adding a 2× mix of Amplex Red, HRP (coupling enzyme), and substrate (benzylamine, histamine, tyramine, benzylamine, H2O2, for VAP-1, DAO, MAO-A, MAO-B, and HR, respectively) in the same buffer. Reaction progress curve data were typically collected for 5 min using excitation/emission wavelengths of 510 nm/565 nm on FLIPR-Tetra plate readers (Molecular Devices Inc). Reaction rates were calculated from progress curve slopes typically over 60-150 sec. Dose response curves (rate vs. log inhibitor concentration) were typically fit to a 4-parameter logistic function to extract IC50 values.
Turning to `NC/C(=C\F)COC(=O)Nc1ccccc1` [Compound 65, (E)-2-(aminomethyl)-3-fluoroalkyl phenylcarbamate], the IC50 (in general, the concentration at which inhibition is half-maximal) was less than 3 µM.

As to `NC/C(=C\F)CNCc1ccccc1` [Compound 26, (E)-N^1-benzyl-2-(fluoromethylene)propane-1,3-diamine], the IC50 was less than 3 µM.

As to `NC/C(=C/F)COc1ccc(-c2ncc[nH]2)cc1` [Compound 63, (Z)-2-((4-(1H-imidazol-2-yl)phenoxy)methyl)-3-fluoroprop-2-en-1-amine], the half-maximal inhibitory concentration (IC50) is less than 3 µM.

As for `NC/C(=C/F)COc1cnc(N2CC[C@H](O)C2)nc1` [Compound 80], the IC50 is less than 3 µM.

For the compound `CC(C)(C)NC(=O)c1cn(CC(=CF)CN)c2ccccc12` [Compound 70, 1-(2-(aminomethyl)-3-fluoroalkyl)-N-(tert-butyl)-1H-indole-3-carboxamide], the IC50 is less than 3 µM.

`CCC(=O)Nc1ccc(OC/C(=C/F)CN)cc1` [Compound 82, (E)-N-(4-((2-(aminomethyl)-3-fluoroalkyl)oxy)phenyl)propionamide]: the IC50 is less than 3 µM.

For `CC(C)(C)NC(=O)c1ccc2c(ccn2C/C(=C/F)CN)c1` [Compound 59, (E)-1-(2-(aminomethyl)-3-fluoroalkyl)-N-(tert-butyl)-1H-indole-5-carboxamide], the half-maximal inhibitory concentration (IC50) was less than 3 µM.

Regarding `NC/C(=C/F)COc1ccc(-c2ccccc2)cc1` [Compound 34, (Z)-2-(([1,1′-biphenyl]-4-yloxy)methyl)-3-fluoroprop-2-en-1-amine hydrochloride], the half-inhibitory concentration (IC50) was less than 3 µM.

A further test concerns the target T2, Human DAO (Homo sapiens, UniProt P19801).
T2 sequence (P19801 20-751): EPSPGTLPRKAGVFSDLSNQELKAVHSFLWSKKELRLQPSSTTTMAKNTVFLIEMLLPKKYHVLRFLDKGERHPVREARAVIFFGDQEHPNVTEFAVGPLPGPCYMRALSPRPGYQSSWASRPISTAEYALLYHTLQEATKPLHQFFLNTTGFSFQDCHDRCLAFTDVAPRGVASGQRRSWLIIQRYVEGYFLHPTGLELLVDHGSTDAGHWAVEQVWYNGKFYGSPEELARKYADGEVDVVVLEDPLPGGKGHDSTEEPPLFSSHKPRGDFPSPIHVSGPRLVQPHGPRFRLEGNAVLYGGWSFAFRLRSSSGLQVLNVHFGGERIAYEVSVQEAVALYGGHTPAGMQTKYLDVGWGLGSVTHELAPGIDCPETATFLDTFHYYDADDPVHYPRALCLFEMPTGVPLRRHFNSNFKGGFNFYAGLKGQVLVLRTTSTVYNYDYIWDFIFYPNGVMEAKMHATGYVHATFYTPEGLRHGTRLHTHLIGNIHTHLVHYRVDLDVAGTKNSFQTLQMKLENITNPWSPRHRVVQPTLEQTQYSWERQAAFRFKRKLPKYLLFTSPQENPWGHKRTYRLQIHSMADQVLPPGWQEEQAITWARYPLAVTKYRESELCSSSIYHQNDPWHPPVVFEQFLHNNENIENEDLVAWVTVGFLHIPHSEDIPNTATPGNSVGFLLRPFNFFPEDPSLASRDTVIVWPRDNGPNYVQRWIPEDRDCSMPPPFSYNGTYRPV
Description: DAO inhibition (Amplex Red continuous fluorescence assay). The format is biochemical. As to conditions: 30 min pre-incubation at room temp; substrate histamine; read-out: Human DAO IC50. As to the method:
as §1, §2
As for `NC/C(=C\F)COC(=O)Nc1ccccc1` [Compound 65, (E)-2-(aminomethyl)-3-fluoroalkyl phenylcarbamate], the IC50 is less than 3 µM.

Turning to `NC/C(=C\F)CNCc1ccccc1` [Compound 26, (E)-N^1-benzyl-2-(fluoromethylene)propane-1,3-diamine], the 50% inhibitory concentration (IC50) is more than 10 µM.

Consider `NC/C(=C/F)COc1ccc(-c2ncc[nH]2)cc1` [Compound 63, (Z)-2-((4-(1H-imidazol-2-yl)phenoxy)methyl)-3-fluoroprop-2-en-1-amine], for which the IC50 is less than 3 µM.

In the case of `NC/C(=C/F)COc1cnc(N2CC[C@H](O)C2)nc1` [Compound 80], the IC50 is less than 3 µM.

Regarding `CC(C)(C)NC(=O)c1cn(CC(=CF)CN)c2ccccc12` [Compound 70, 1-(2-(aminomethyl)-3-fluoroalkyl)-N-(tert-butyl)-1H-indole-3-carboxamide], the IC50 was more than 10 µM.

On to `CCC(=O)Nc1ccc(OC/C(=C/F)CN)cc1` [Compound 82, (E)-N-(4-((2-(aminomethyl)-3-fluoroalkyl)oxy)phenyl)propionamide], for which the IC50 is 3 to 10 µM.

Regarding `CC(C)(C)NC(=O)c1ccc2c(ccn2C/C(=C/F)CN)c1` [Compound 59, (E)-1-(2-(aminomethyl)-3-fluoroalkyl)-N-(tert-butyl)-1H-indole-5-carboxamide], the concentration for half-maximal inhibition (IC50) was more than 10 µM.

Consider `NC/C(=C/F)COc1ccc(-c2ccccc2)cc1` [Compound 34, (Z)-2-(([1,1′-biphenyl]-4-yloxy)methyl)-3-fluoroprop-2-en-1-amine hydrochloride], for which the IC50 was less than 3 µM.

In a further test the target is T3, Human MAO-A (Homo sapiens, UniProt P21397).
T3 sequence (P21397 1-527): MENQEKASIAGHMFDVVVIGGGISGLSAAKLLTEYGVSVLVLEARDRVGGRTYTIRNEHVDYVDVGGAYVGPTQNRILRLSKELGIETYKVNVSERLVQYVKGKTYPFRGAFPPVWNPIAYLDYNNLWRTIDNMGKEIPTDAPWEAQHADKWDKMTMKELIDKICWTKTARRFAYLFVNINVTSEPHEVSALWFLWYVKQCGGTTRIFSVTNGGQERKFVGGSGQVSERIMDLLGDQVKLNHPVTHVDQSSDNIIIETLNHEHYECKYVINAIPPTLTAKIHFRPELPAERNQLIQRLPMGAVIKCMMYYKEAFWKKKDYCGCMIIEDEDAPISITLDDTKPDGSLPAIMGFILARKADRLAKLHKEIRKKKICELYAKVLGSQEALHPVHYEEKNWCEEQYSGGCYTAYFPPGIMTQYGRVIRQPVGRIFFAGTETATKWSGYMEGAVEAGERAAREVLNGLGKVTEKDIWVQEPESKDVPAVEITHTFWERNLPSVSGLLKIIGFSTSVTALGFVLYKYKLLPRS
In words: MAO-A inhibition (Amplex Red continuous fluorescence assay). The format is biochemical. The following applies: 30 min pre-incubation at room temp; substrate tyramine; read-out: Human MAO-A IC50. As to the method:
as §1, §2
Take `NC/C(=C\F)COC(=O)Nc1ccccc1` [Compound 65, (E)-2-(aminomethyl)-3-fluoroalkyl phenylcarbamate]: the IC50 lay within 3 to 10 µM.

`NC/C(=C\F)CNCc1ccccc1` [Compound 26, (E)-N^1-benzyl-2-(fluoromethylene)propane-1,3-diamine]: the IC50 was 3 to 10 µM.

`NC/C(=C/F)COc1ccc(-c2ncc[nH]2)cc1` [Compound 63, (Z)-2-((4-(1H-imidazol-2-yl)phenoxy)methyl)-3-fluoroprop-2-en-1-amine]: the IC50 was more than 10 µM.

With `NC/C(=C/F)COc1cnc(N2CC[C@H](O)C2)nc1` [Compound 80], the half-maximal inhibitory concentration (IC50) is more than 10 µM.

As for `CC(C)(C)NC(=O)c1cn(CC(=CF)CN)c2ccccc12` [Compound 70, 1-(2-(aminomethyl)-3-fluoroalkyl)-N-(tert-butyl)-1H-indole-3-carboxamide], the IC50 was less than 3 µM.

As to `CCC(=O)Nc1ccc(OC/C(=C/F)CN)cc1` [Compound 82, (E)-N-(4-((2-(aminomethyl)-3-fluoroalkyl)oxy)phenyl)propionamide], the IC50 was in the range of 3 to 10 µM.

On to `CC(C)(C)NC(=O)c1ccc2c(ccn2C/C(=C/F)CN)c1` [Compound 59, (E)-1-(2-(aminomethyl)-3-fluoroalkyl)-N-(tert-butyl)-1H-indole-5-carboxamide], for which the IC50 was more than 10 µM.

Turning to `NC/C(=C/F)COc1ccc(-c2ccccc2)cc1` [Compound 34, (Z)-2-(([1,1′-biphenyl]-4-yloxy)methyl)-3-fluoroprop-2-en-1-amine hydrochloride], the IC50 is less than 3 µM.

A further test has as its target T4, Human MAO-B (Homo sapiens, UniProt P27338).
T4 sequence (P27338 1-520): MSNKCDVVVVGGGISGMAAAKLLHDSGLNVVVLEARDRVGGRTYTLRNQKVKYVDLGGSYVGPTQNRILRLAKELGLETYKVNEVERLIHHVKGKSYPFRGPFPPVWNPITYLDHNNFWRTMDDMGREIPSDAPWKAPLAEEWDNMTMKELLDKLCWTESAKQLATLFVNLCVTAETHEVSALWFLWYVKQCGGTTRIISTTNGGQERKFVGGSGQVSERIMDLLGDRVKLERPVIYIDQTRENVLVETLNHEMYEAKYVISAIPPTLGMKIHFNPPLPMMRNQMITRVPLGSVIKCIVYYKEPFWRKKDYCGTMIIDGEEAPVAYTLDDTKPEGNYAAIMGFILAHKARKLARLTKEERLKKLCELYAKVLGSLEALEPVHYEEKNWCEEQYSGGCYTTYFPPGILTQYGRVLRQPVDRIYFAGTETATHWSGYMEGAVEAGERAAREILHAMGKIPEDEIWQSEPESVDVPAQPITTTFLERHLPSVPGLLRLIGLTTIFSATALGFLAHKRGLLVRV
In words: MAO-B inhibition (Amplex Red continuous fluorescence assay). The format is biochemical. As to conditions: 30 min pre-incubation at room temp; substrate benzylamine; read-out: Human MAO-B IC50. As to the method:
as §1, §2
On to `NC/C(=C\F)COC(=O)Nc1ccccc1` [Compound 65, (E)-2-(aminomethyl)-3-fluoroalkyl phenylcarbamate], for which the IC50 was 3 to 10 µM.

`NC/C(=C\F)CNCc1ccccc1` [Compound 26, (E)-N^1-benzyl-2-(fluoromethylene)propane-1,3-diamine]: the IC50 was less than 3 µM.

For `NC/C(=C/F)COc1ccc(-c2ncc[nH]2)cc1` [Compound 63, (Z)-2-((4-(1H-imidazol-2-yl)phenoxy)methyl)-3-fluoroprop-2-en-1-amine], the IC50 is more than 10 µM.

Turning to `NC/C(=C/F)COc1cnc(N2CC[C@H](O)C2)nc1` [Compound 80], the IC50 is more than 10 µM.

As to `CC(C)(C)NC(=O)c1cn(CC(=CF)CN)c2ccccc12` [Compound 70, 1-(2-(aminomethyl)-3-fluoroalkyl)-N-(tert-butyl)-1H-indole-3-carboxamide], the IC50 is more than 10 µM.

On to `CCC(=O)Nc1ccc(OC/C(=C/F)CN)cc1` [Compound 82, (E)-N-(4-((2-(aminomethyl)-3-fluoroalkyl)oxy)phenyl)propionamide], for which the half-inhibitory concentration (IC50) is less than 3 µM.

In the case of `CC(C)(C)NC(=O)c1ccc2c(ccn2C/C(=C/F)CN)c1` [Compound 59, (E)-1-(2-(aminomethyl)-3-fluoroalkyl)-N-(tert-butyl)-1H-indole-5-carboxamide], the IC50 was less than 3 µM.

As to `NC/C(=C/F)COc1ccc(-c2ccccc2)cc1` [Compound 34, (Z)-2-(([1,1′-biphenyl]-4-yloxy)methyl)-3-fluoroprop-2-en-1-amine hydrochloride], the IC50 is less than 3 µM.
